Experimental data taken from patent US10053487B2, “Neuroactive 19-alkoxy-17(20)-Z-vinylcyano-substituted steroids, prodrugs thereof, and methods of treatment using same” (priority 2012, dated 2018).
Read-outs that look alike come from different tables or passages of the source.

Columns and labels:
[1] = test system: GABAA receptors; details: background statement; cited from earlier work
[2] = test system: GABAA receptors (picrotoxin binding site); assay: [35S]-TBPS displacement (non-competitive displacement from the picrotoxin binding site)
Description: (§1) The IC50 values for the compounds of Scheme 1 (i.e., Compounds 1 and 2) as non-competitive displacers of [^35S]-TBPS from the picrotoxin binding site on GABAA receptors are reported in Table 1.
(§2) Results presented are from duplicate experiments performed in triplicate. Error limits are calculated as standard error of the mean. Methods used are known in the art (see, e.g., E. Stastna, et al., Neurosteroid Analogues. 16. A New Explanation for the Lack of Anesthetic Effects in Δ^16-Alphaxalone and Identification of a Δ^17(20) Analogue with Potent Anesthetic Activity, J. Med. Chem., 54(11), pp. 3926-34 (2011)).

[3] = target: T1, GABAA receptors (picrotoxin binding site); assay: as above; details: duplicate experiments performed in triplicate; ± SEM; read-out: Inhibition of [35S]-TBPS binding, IC50
T1 construct: other: duplicate experiments performed in triplicate; ± SEM; other: Hill coefficient
Description: as §1, §2

[4] = test system: tadpoles; assay: Tadpole loss of righting reflex (LRR) and loss of swimming reflex (LSR); type: in vivo; details: ± SEM
From the text: Table 3 discloses the anesthetic effects of the compounds of the present disclosure. In particular, the anesthetic effect of the compounds of the present disclosure on Loss of Righting Reflex (LRR) and Loss of Swimming Reflex (LSR).
A quantal dose-response curve for loss of righting reflect (LRR) and loss of swimming reflex (LSR) caused by Compound 1 in tadpoles, is illustrated in FIG. 3, as well. ^aMethods used are known in the art (see, e.g., E. Stastna, et al., Neurosteroid Analogues. 16. A New Explanation for the Lack of Anesthetic Effects in Δ^16-Alphaxalone and Identification of a Δ^17(20) Analogue with Potent Anesthetic Activity, J. Med. Chem., 54(11), pp. 3926-34 (2011)). Error limits are calculated as standard error of the mean (N=10 or more animals at each of five or more different concentrations).

[5] = target: T2, rat α1β2γ2L type GABAA receptors expressed in Xenopus laevis oocytes (Rattus norvegicus, UniProt P62813+P63138); assay: Oocyte electrophysiology: potentiation of chloride currents mediated by 2 μM GABA, and direct gating; type: cell-based; details: ± SEM, N≥4; for Ratio of currents measured in the presence/absence of added compound, 0.1 μM: 0.1 μM compound; for Ratio of currents measured in the presence/absence of added compound, 0.1 μM / Ratio of currents measured in the presence/absence of added compound, 1 μM / Ratio of currents measured in the presence/absence of added compound, 10 μM: 2 μM GABA; for Ratio of currents measured in the presence/absence of added compound, 1 μM: 1 μM compound; for Ratio of currents measured in the presence/absence of added compound, 10 μM: 10 μM compound; for (gating) 10 μM: ratio of compound only current/2 μM GABA current: direct current gated by 10 μM compound in the absence of GABA
T2 construct: expressed in transfected cells; host or cells: Xenopus laevis oocytes
T2 sequence (P62813 28-455): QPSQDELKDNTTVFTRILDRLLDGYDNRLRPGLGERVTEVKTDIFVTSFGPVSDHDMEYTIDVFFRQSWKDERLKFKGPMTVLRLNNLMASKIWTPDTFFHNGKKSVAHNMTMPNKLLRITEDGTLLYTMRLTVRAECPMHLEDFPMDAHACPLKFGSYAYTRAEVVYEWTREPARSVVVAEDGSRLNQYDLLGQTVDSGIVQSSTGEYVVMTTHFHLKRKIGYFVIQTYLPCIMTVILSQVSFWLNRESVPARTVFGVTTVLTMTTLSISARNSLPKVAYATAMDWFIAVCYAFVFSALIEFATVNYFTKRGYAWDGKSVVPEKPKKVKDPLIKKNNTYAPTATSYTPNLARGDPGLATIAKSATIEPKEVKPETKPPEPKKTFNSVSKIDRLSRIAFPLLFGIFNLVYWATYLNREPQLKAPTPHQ
T2 sequence (P63138 26-474): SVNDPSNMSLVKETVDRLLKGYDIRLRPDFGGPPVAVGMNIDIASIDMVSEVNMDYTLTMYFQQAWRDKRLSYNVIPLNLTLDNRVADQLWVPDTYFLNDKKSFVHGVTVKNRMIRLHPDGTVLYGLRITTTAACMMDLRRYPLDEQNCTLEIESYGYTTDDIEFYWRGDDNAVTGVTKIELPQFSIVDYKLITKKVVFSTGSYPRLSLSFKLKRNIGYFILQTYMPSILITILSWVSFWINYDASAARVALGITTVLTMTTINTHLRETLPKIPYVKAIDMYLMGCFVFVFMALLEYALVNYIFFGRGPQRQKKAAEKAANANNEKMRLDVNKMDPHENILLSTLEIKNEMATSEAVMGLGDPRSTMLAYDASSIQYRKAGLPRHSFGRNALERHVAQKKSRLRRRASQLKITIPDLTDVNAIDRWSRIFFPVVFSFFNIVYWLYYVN
T2 sequence (P18508 other isoform, or with tags, fused parts or gaps INS375LLRMFSFK, further chain): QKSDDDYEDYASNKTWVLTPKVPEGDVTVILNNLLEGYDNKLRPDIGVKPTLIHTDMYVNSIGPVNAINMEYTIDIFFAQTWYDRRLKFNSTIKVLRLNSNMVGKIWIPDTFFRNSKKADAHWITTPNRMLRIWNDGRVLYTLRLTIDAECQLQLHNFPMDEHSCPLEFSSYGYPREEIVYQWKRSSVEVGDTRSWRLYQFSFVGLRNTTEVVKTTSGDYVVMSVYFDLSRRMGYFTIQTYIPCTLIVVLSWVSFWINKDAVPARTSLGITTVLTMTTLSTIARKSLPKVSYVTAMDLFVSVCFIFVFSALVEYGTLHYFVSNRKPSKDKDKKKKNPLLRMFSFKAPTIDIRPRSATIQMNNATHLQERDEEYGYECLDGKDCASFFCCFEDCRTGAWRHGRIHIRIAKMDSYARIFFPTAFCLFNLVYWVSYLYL
Description: The compounds of the present disclosure were evaluated for the ability to potentiate chloride currents mediated by 2 μM GABA at rat α1β2γ2L type GABAA receptors expressed in Xenopus laevis oocytes and the results are shown in Table 2.
The potentiation of 2 μM GABA-mediated chloride currents at rat α1β2γ2-type GABAA receptors expressed in frog oocytes by different concentrations of Compound 1, is illustrated by the curves in FIG. 2, as well. ^aThe GABA concentration used for the control response was 2 μM. Each compound was evaluated on at least four different oocytes at the concentrations indicated, and the results reported are the ratio of currents measured in the presence/absence of added compound. Gating represents direct current gated by 10 μM compound in the absence of GABA, and this current is reported as the ratio of compound only current/2 μM GABA current. Error limits are calculated as standard error of the mean (N≥4). Methods used are known in the art (see, e.g., E. Stastna, et al., Neurosteroid Analogues. 16. A New Explanation for the Lack of Anesthetic Effects in Δ^16-Alphaxalone and Identification of a Δ^17(20) Analogue with Potent Anesthetic Activity, J. Med. Chem., 54(11), pp. 3926-34 (2011)).

[6] = loss of righting reflex, read-out: Tadpole LRR EC50
[7] = loss of swimming reflex, read-out: Tadpole LSR EC50
[8] = [35S]-TBPS displacement, hydrogenated Δ17(20) double bond

Row | SMILES | IC50 [3] | EC50 [4, 6] | EC50 [4, 7] | melting point | Ratio of currents measured in the presence/absence of added compound, 0.1 μM [5] | Ratio of currents measured in the presence/absence of added compound, 1 μM [5] | Ratio of currents measured in the presence/absence of added compound, 10 μM [5] | (gating) 10 μM: ratio of compound only current/2 μM GABA current [5] | also measured
1 | CC(=O)C1=CC[C@H]2[C@@H]3CC[C@H]4C[C@H](O)CC[C@]4(C)[C@H]3C(=O)C[C@]12C [Δ^16-alphaxalone] | – | – | – | – | – | – | – | – | Allosteric activity at GABAA receptors, in contrast to alphaxalone [1]: greatly diminished allosteric activity
2 | C[C@]12CC[C@@H](O)C[C@@H]1CC[C@@H]1[C@@H]2C(=O)C[C@]2(C)/C(=C\C#N)CC[C@@H]12 [Compound 6a] | – | – | – | – | – | – | – | – | Fold more potent at displacing [35S]-TBPS than the E isomer ([2]; Z isomer versus E isomer (Compound 6a versus Compound 6b)): about 17 fold
3 | COC[C@]12CC[C@@H](O)C[C@@H]1CC[C@@H]1[C@@H]2CC[C@]2(C)/C(=C/C#N)CC[C@@H]12 [Compound 2, [3α,5α,17(20)E]-19-methoxypregn-17(20)-ene-21-nitrile] | 657 ± 114 nM | 2780 ± 560 nM | ~10000 nM | 185 to 188 °C | 0.69 ± 0.11 | 1.26 ± 0.22 | 2.97 ± 0.33 | 0.31 ± 0.25 | –
4 | COC[C@]12CC[C@@H](O)C[C@@H]1CC[C@@H]1[C@@H]2CC[C@]2(C)/C(=C\C#N)CC[C@@H]12 [Compound 1, [3α,5α,17(20)Z]-19-methoxypregn-17(20)-ene-21-nitrile] | 42 ± 4 nM | 159 ± 25 nM | 970 ± 65 nM | 166 to 168 °C | 2.88 ± 0.90 | 15.27 ± 2.58 | 45.80 ± 15.79 | 0.19 ± 0.08 | –
5 | C[C@]12CC[C@@H](O)C[C@@H]1CC[C@H]1[C@@H]3CC[C@H](CC#N)[C@@]3(C)CC(=O)[C@@H]12 [Compound 5c] | – | – | – | – | – | – | – | – | Fold decrease of IC50 value relative to Compound 6b [2, 8]: about twofold; Fold increase of IC50 value relative to Compound 6a [2, 8]: about eight-fold
